This test relates to methacholine-induced bronchoconstriction in guinea pigs. Briefly: Inhibition of methacholine-induced bronchoconstriction in anaesthetized, mechanically ventilated guinea pigs. The format is in vivo, guinea pig. As for the experimental part:
Inhibition of Methacholine-induced Bronchoconstriction in Guinea Pigs by ROFLUMILAST in combination with tiotropium-bromide
To assess the inhibitory effect of tiotropium-bromide, ROFLUMILAST, and the combination of both compounds on methacholine-induced bronchoconstriction in anaesthetized, mechanically ventilated guinea pigs.
Male Dunkin Hartley guinea pigs, body weight 350-450 g when performing the experiments.
75 min before methacholine-induced bronchospasm (at −75 min) animals were anaesthetized with urethane i.p. (1.2 g/kg). At −5 min for i.v. injections the right jugular vein and for ventilation the trachea was cannulated. At −45 min NaCl 0.9% or tiotropium-bromide was administered i.v. (1 μg/kg). At −30 min lactose (10 mg/kg) or ROFLUMILAST (4 mg/kg) mixed with lactose was administered intratracheally by a dry powder aerolizer. At −10 min pancuronium-bromide (1.5 mg/kg) was administered i.v. to abolish spontaneous breathing. Animals were mechanically ventilated with 60 breath/min and a tidal volume of 7 ml/kg. Dynamic lung compliance (COM) and airway conductance (CON) were calculated with the help of a computer system from airflow and ventilation pressure signals. At t=0 min methacholine was administered i.v. (60 μg/kg) to induce Bronchoconstriction.
COM and CON were determined up to 120 s after methacholine-induced bronchospasm. AUCs for 0 to 120s were determined. Inhibition was calculated based on the AUC data. Data are shown as mean±SEM. Results were taken to be significant if p<0.05 versus placebo (ANOVA and Dunnett's multiple comparison test)

Setting [1] is: male Dunkin Hartley guinea pigs, methacholine 60 μg/kg i.v., tiotropium-bromide 1 μg/kg i.v. at -45 min, ROFLUMILAST 4 mg/kg intratracheally at -30 min, inhibition versus placebo.

In the case of `C[N+]1(C)[C@@H]2C[C@@H](OC(=O)C(O)(c3cccs3)c3cccs3)C[C@H]1[C@@H]1O[C@@H]12` [tiotropium-bromide], under setting [1], the “Inhibition of methacholine-induced airway conductance (CON) decrease, based on AUC 0-120 s” value was found to be 5.9% and the “Inhibition of methacholine-induced dynamic lung compliance (COM) decrease, based on AUC 0-120 s” value was 12%. The “Effect on methacholine-induced bronchospasm (in words)” value (same doses, significant if p<0.05 versus placebo (ANOVA and Dunnett's test)) is on record as “no significant effect”.

Source of the values: patent publication US20060189642A1, “Synergistic combination comprising roflumilast and an anticholinergic agent selected from ipratropium, oxitropium and tiotropium salts for the treatment of respiratory diseases” (ALTANA PHARMA AG, priority 2003, published 2006).
